Data on 1 molecule can be found in patent publication US20090247455A1, “Isolation of Inhibitors of IRES-Mediated Translation” (priority 2005, published 2009).

The assay concerns HEK293 cells comprising the pcDNA3-red-HCVIRES-gpt vector. Briefly: Growth of HEK293 cells with the IRES-gpt construct versus control cells in 6-thioxanthine (OD 590 nm). The class given is cell-based. The following applies: 100 μM, up to 9 days, OD at days 2, 6 and 9, versus control cells. On the procedure: FIG. 3 is a graphical representation showing the growth of HEK293 cells comprising a construct in which a gpt gene is placed under the control of a HCV IRES or control cells grown in the presence or absence of 6-thioxanthine (100 μM). The number of days of 6-thioxanthine treatment is indicated on the X-axis. The optical density at 590 nm of the tissue culture flask containing the cells is shown on the Y-axis. […] The OD590 of cells comprising the IRES-gpt construct grown in the absence of 6-thioxanthine are represented by solid squares and dashed line. The OD590 of cells comprising the IRES-gpt construct grown in the presence of 6-thioxanthine are represented by solid squares and solid line.
Cells were also screened to determine those capable of expressing gpt under the control of HCV IRES. Briefly, transfected cells or control cells were maintained either in the absence or presence of 6-thioxanthine (100 μM) for up to 9 days. To determine any change in cell number an optical density measurement was performed at 590 nm at days 2, 6 and 9 after the addition of 6-thioxanthine to the relevant cells.

For `O=c1[nH]c(=S)c2[nH]cnc2[nH]1` [6-thioxanthine], the “susceptibility of cells to 6-thioxanthine selection (optical density at 590 nm)” value is reported as “considerably more susceptible”.
